Among the data in PubChem BioAssay (NCI) are GI50 and TGI values, retold here.

Test systems include BT-549 breast; NCI/ADR-RES ovarian; SR leukemia; NCI-H23 lung; M14 melanoma; 786-0 renal; SNB-75 CNS; SN12C renal; KM20L2 colon; DLD-1 colon.
What all share (test): DTP human tumour cell line panel, 48 h

Each structure is given as a SMILES string.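 Each compound was tested at five concentrations against cells in 96-well plates for 48 hours. Here, GI50 denotes the concentration required for 50% inhibition of growth. TGI: concentration producing complete growth inhibition.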

Consider `CC/C(=N/N=C(N)N)c1ccc(NC(=O)Nc2ccc(/C(CC)=N/N=C(N)N)cc2)cc1`, for which the GI50 in the assay with BT-549 breast was 3.83 µM; in the assay on NCI/ADR-RES ovarian, 24.7 µM; with SR leukemia, 2.44 µM; with NCI-H23 lung, 11.5 µM; in the assay with M14 melanoma, 10.4 µM; with 786-0 renal it was 9.02 µM. For the same molecule, the GI50 in the assay with SNB-75 CNS was 13.6 µM; in the assay on SN12C renal it was 3.16 µM. Moreover, the TGI in the assay with BT-549 breast is 21.1 µM; in the assay on NCI/ADR-RES ovarian, more than 100 µM; with SR leukemia, 14.9 µM; with NCI-H23 lung, 50.8 µM; in the assay on M14 melanoma, 37.4 µM; in the assay on 786-0 renal it was 30.9 µM. Also, the results for the TGI in the assay on SNB-75 CNS and in the assay with SN12C renal were 42.1 µM and 19.4 µM, respectively.

On to `CCCCCCCCCCCC(=O)OC(COC(N)=O)COc1ccc(Cl)cc1` (centres undefined), for which the TGI in the assay with KM20L2 colon was more than 100 µM; in the assay with NCI-H23 lung, 46 µM; in the assay on M14 melanoma, 35 µM; with 786-0 renal, more than 100 µM; in the assay on SNB-75 CNS, more than 100 µM; in the assay with DLD-1 colon, more than 100 µM. This molecule came in with a total growth inhibition concentration (TGI) in the assay on SN12C renal of 70 µM.

As to `Fc1ccc(-c2c(-c3ccncc3)[nH]c3nccnc23)cc1`, the GI50 is more than 15.2 µM in the assay on BT-549 breast; 16.1 µM in the assay with NCI/ADR-RES ovarian; 8.79 µM in the assay with SR leukemia; more than 17.4 µM with NCI-H23 lung; more than 18.7 µM with M14 melanoma; 11.3 µM with 786-0 renal. For the same molecule, the GI50 was 2.66 µM in the assay with SNB-75 CNS and 7.84 µM in the assay on SN12C renal. Further, the TGI with BT-549 breast, in the assay on NCI/ADR-RES ovarian, with SR leukemia, in the assay on NCI-H23 lung, with M14 melanoma and in the assay with 786-0 renal was more than 25 µM throughout. For the same molecule, the TGI in the assay on SNB-75 CNS and with SN12C renal was more than 25 µM each time.

Regarding `Oc1cccc(-c2nc(-c3ccccc3)[nH]c2-c2ccncc2)c1`, the GI50 in the assay on BT-549 breast was more than 25 µM; in the assay on NCI/ADR-RES ovarian, more than 25 µM; in the assay with SR leukemia it was 11.3 µM; with NCI-H23 lung, 12.4 µM; in the assay on M14 melanoma, 1.71 µM; with 786-0 renal, 9.11 µM. Moreover, the GI50 is 9.93 µM with SNB-75 CNS and 15.9 µM in the assay on SN12C renal. The TGI is more than 25 µM in the assay on BT-549 breast; more than 25 µM in the assay on NCI/ADR-RES ovarian; more than 25 µM in the assay on SR leukemia; more than 25 µM with NCI-H23 lung; 12.6 µM in the assay with M14 melanoma; more than 25 µM with 786-0 renal. Moreover, the results for the TGI in the assay with SNB-75 CNS and in the assay on SN12C renal were more than 23.7 µM and more than 25 µM, respectively.

Regarding `Cc1cc2c(cc1Cl)SC(C(=O)c1ccc(Cl)c(Cl)c1)NS2(=O)=O` (centres undefined), the GI50 with BT-549 breast was 29.8 µM; with NCI/ADR-RES ovarian, 38.6 µM; with SR leukemia, 31.4 µM; in the assay on NCI-H23 lung, 34.1 µM; with M14 melanoma, 43.9 µM; in the assay on 786-0 renal it was 37.3 µM. For the same molecule, the GI50 with SNB-75 CNS was 31.3 µM; with SN12C renal it was 32 µM. Moreover, the TGI in the assay with BT-549 breast is 56.5 µM; in the assay on NCI/ADR-RES ovarian, more than 100 µM; with SR leukemia, 81.8 µM; in the assay on NCI-H23 lung it was 89.5 µM; with M14 melanoma it was more than 100 µM; in the assay on 786-0 renal it was 97 µM. Further, the figures for the TGI with SNB-75 CNS and in the assay on SN12C renal were 81.1 µM and 86.4 µM, respectively.

Consider `Cc1ccc(NC(=O)C(=O)CC(=O)c2ccccc2)cc1C`, for which the TGI with KM20L2 colon, in the assay with NCI-H23 lung, in the assay on M14 melanoma, in the assay with 786-0 renal, in the assay with SNB-75 CNS and in the assay with DLD-1 colon was more than 100 µM throughout. Also, the TGI with SN12C renal was more than 100 µM.

On to `c1ccc2c(c1)N=C(c1ccc3ccccc3c1)CC(c1cccc3ccccc13)S2` (centres undefined), for which the TGI in the assay with KM20L2 colon, with NCI-H23 lung, in the assay with M14 melanoma, in the assay with 786-0 renal, with SNB-75 CNS and in the assay with DLD-1 colon was more than 100 µM throughout. Also, the TGI in the assay on SN12C renal was more than 100 µM.

Regarding `CCN1C(=O)N(CC)C2C1NN=c1s/c(=C\c3ccc(OC)cc3)c(=O)n12` (centres undefined), the GI50 with BT-549 breast was 0.288 µM; in the assay with NCI/ADR-RES ovarian, 0.0744 µM; in the assay on SR leukemia, 0.0444 µM; with NCI-H23 lung, 0.494 µM; with M14 melanoma, 0.172 µM; in the assay on 786-0 renal, 0.647 µM. Further, the GI50 in the assay on SNB-75 CNS is 0.0442 µM; in the assay on SN12C renal it was 0.454 µM. In addition, the TGI with BT-549 breast is more than 25.1 µM; with NCI/ADR-RES ovarian, more than 100 µM; with NCI-H23 lung it was more than 100 µM; in the assay with M14 melanoma it was more than 100 µM; with 786-0 renal, more than 100 µM; in the assay with SNB-75 CNS it was 2.84 µM. In the assay on SN12C renal, this molecule returned a TGI of more than 100 µM.

With `CNCCN(C)Cc1cn[nH]c1-c1ccc(OC2CC(OCCC3CCOCC3)C2)cc1` (centres undefined), the GI50 is 54.2 µM in the assay on BT-549 breast; more than 100 µM with NCI/ADR-RES ovarian; 25.9 µM in the assay with SR leukemia; more than 91.7 µM in the assay on NCI-H23 lung; more than 66.3 µM in the assay on M14 melanoma; more than 100 µM in the assay on 786-0 renal. Further, the GI50 with SNB-75 CNS was 38.2 µM; in the assay on SN12C renal, more than 100 µM. In addition, the total growth inhibition concentration (TGI) with BT-549 breast, with NCI/ADR-RES ovarian, in the assay on SR leukemia, in the assay with NCI-H23 lung, in the assay on M14 melanoma and in the assay on 786-0 renal was more than 100 µM throughout. For the same molecule, the TGI in the assay with SNB-75 CNS and with SN12C renal was more than 100 µM in each case.

`CCOC(=O)c1cc(-c2ccccc2)[nH]c1N/N=C/c1c(Cl)cccc1Cl`: the GI50 is 1.24 µM in the assay on BT-549 breast; 0.509 µM with NCI/ADR-RES ovarian; 0.413 µM in the assay on SR leukemia; 1.33 µM in the assay on NCI-H23 lung; 1.71 µM in the assay with M14 melanoma; 1.39 µM with 786-0 renal. The GI50 with SNB-75 CNS was 1.53 µM; in the assay with SN12C renal it was 4.3 µM. Besides, the TGI in the assay on BT-549 breast stood at 18.9 µM; in the assay on NCI/ADR-RES ovarian, 14.6 µM; in the assay on SR leukemia, 10.2 µM; in the assay on NCI-H23 lung, 40.4 µM; in the assay on M14 melanoma, 25.3 µM; with 786-0 renal, 49 µM. Also, the TGI with SNB-75 CNS was more than 39.6 µM; with SN12C renal it was more than 100 µM.

`Cn1cnc([N+](=O)[O-])c1Sc1nc2ccc([N+](=O)[O-])cc2[nH]1`: the TGI with KM20L2 colon was more than 100 µM; in the assay on SR leukemia it was 41.5 µM; with NCI-H23 lung, 72 µM; with M14 melanoma, more than 100 µM; in the assay on 786-0 renal it was more than 100 µM; with SNB-75 CNS, 81.8 µM. Also, the TGI in the assay on DLD-1 colon stood at 32.6 µM.

The term GI50 denotes the concentration at which growth is held to half of that of the control. In general, TGI refers to the concentration giving total growth inhibition. Higher therefore signals lower sensitivity of the cells.
